In US9055745B2, “Compositions for internal and external insecticides, ovicides, repellents and wound healing” (Natureza, Inc., priority 2011, dated 2015):

Experiments:
ctenocephalides felis = assay: Efficacy of fatty acid methyl esters in water or acetone on glass paper (Table 14); assay type: in vivo
Text: Further results are shown below in Table 14, regarding the efficacy of various fatty acid methyl and ester esters against fleas (ctenocephalides felis).

fleas = assay: Flea contact test using impregnated glass paper (Example XIII, FIG. 15, Table 13); assay type: in vivo; conditions: for Mortality of the fleas: 200 μL on glass filter paper, after twenty-four hours, 12 fleas
Method: The fatty acids used in the test were mono laurin and lauric acid, while the fatty acid esters used in the test were methyl laurate, i.e. lauric acid methyl ester and ethyl dodecanoate, i.e. lauric acid ethyl ester. Each of these compounds were dissolved in ethanol in concentrations of 0.1% and 1%, and then 200 μL (micro liters) of each solution was placed on glass filter paper (15×150 mm). After the ethanol had evaporated a paper for each concentration of each compound was put into a test tube, and 12 fleas were added per test tube and the top of the test tube was covered. Whether the fleas were alive or dead at was measured after 2 and twenty-four hours. […] Further results are shown below in Table 13.

With `CCCCCCCCCC(=O)OC` [Methyl decanoate] the “5 Hours Alive” value (ctenocephalides felis; 0.1% in Acetone) was 12, the “5 Hours Dead” value (ctenocephalides felis; 0.1% in Acetone) was 0 and the “2 hours Alive” value (ctenocephalides felis; 0.1% in Acetone) was 12. The “2 hours Dead” value (ctenocephalides felis; 0.1% in Acetone) was 0, the “20 hours Alive” value (ctenocephalides felis; 0.1% in Acetone) was 12 and the “20 hours Dead” value (ctenocephalides felis; 0.1% in Acetone) was 0. The “5 Hours Alive” value (ctenocephalides felis; 0.1% in Water) was 11, the “5 Hours Dead” value (ctenocephalides felis; 0.1% in Water) was 0 and the “2 hours Alive” value (ctenocephalides felis; 0.1% in Water) was 11. For the same compound, the “2 hours Dead” value (ctenocephalides felis; 0.1% in Water) was 0, the “20 hours Alive” value (ctenocephalides felis; 0.1% in Water) was 11 and the “20 hours Dead” value (ctenocephalides felis; 0.1% in Water) was 0. The “5 Hours Alive” value (ctenocephalides felis; 1% in Acetone) was 14, the “5 Hours Dead” value (ctenocephalides felis; 1% in Acetone) was 0 and the “2 hours Alive” value (ctenocephalides felis; 1% in Acetone) was 14. For the same compound, the “2 hours Dead” value (ctenocephalides felis; 1% in Acetone) was 0, the “20 hours Alive” value (ctenocephalides felis; 1% in Acetone) was 14 and the “20 hours Dead” value (ctenocephalides felis; 1% in Acetone) was 0. For the same compound, the “5 Hours Alive” value (ctenocephalides felis; 1% in Water) was 19, the “5 Hours Dead” value (ctenocephalides felis; 1% in Water) was 0 and the “2 hours Alive” value (ctenocephalides felis; 1% in Water) was 19. For the same compound, the “2 hours Dead” value (ctenocephalides felis; 1% in Water) was 0, the “20 hours Alive” value (ctenocephalides felis; 1% in Water) was 19 and the “20 hours Dead” value (ctenocephalides felis; 1% in Water) was 0.

For `CO[C@H]1CO[C@H]2[C@@H]1OC[C@H]2OC` [ISDE - 1% (benign base), isosorbide dimethyl ether], the “% Killed” value (fleas; after 24 hours) was 0%, the “2 hours Alive” value (fleas; number of fleas, 2 hours) was 12 and the “2 hours Dead” value (fleas; number of fleas, 2 hours) was 0. The “24 hours Alive” value (fleas; number of fleas, 24 hours) was 12 and the “24 hours Dead” value (fleas; number of fleas, 24 hours) was 0.

`CCCCCCCC(=O)OC` [Methyl octanoate] was tested, and the “5 Hours Alive” value (ctenocephalides felis; 0.1% in Acetone) was 16, the “5 Hours Dead” value (ctenocephalides felis; 0.1% in Acetone) was 0 and the “2 hours Alive” value (ctenocephalides felis; 0.1% in Acetone) was 16. For the same compound, the “2 hours Dead” value (ctenocephalides felis; 0.1% in Acetone) was 0, the “20 hours Alive” value (ctenocephalides felis; 0.1% in Acetone) was 16 and the “20 hours Dead” value (ctenocephalides felis; 0.1% in Acetone) was 0. For the same compound, the “5 Hours Alive” value (ctenocephalides felis; 0.1% in Water) was 10, the “5 Hours Dead” value (ctenocephalides felis; 0.1% in Water) was 0 and the “2 hours Alive” value (ctenocephalides felis; 0.1% in Water) was 10. The “2 hours Dead” value (ctenocephalides felis; 0.1% in Water) was 0, the “20 hours Alive” value (ctenocephalides felis; 0.1% in Water) was 10 and the “20 hours Dead” value (ctenocephalides felis; 0.1% in Water) was 0. For the same compound, the “5 Hours Alive” value (ctenocephalides felis; 1% in Acetone) was 8, the “5 Hours Dead” value (ctenocephalides felis; 1% in Acetone) was 0 and the “2 hours Alive” value (ctenocephalides felis; 1% in Acetone) was 8. For the same compound, the “2 hours Dead” value (ctenocephalides felis; 1% in Acetone) was 0, the “20 hours Alive” value (ctenocephalides felis; 1% in Acetone) was 8 and the “20 hours Dead” value (ctenocephalides felis; 1% in Acetone) was 0. For the same compound, the “5 Hours Alive” value (ctenocephalides felis; 1% in Water) was 5, the “5 Hours Dead” value (ctenocephalides felis; 1% in Water) was 0 and the “2 hours Alive” value (ctenocephalides felis; 1% in Water) was 5. The “2 hours Dead” value (ctenocephalides felis; 1% in Water) was 0, the “20 hours Alive” value (ctenocephalides felis; 1% in Water) was 5 and the “20 hours Dead” value (ctenocephalides felis; 1% in Water) was 0.

With `CCCCCCCCC(=O)OC` [Methyl nonanoate] the “5 Hours Alive” value (ctenocephalides felis; 0.1% in Acetone) was 14, the “5 Hours Dead” value (ctenocephalides felis; 0.1% in Acetone) was 0 and the “2 hours Alive” value (ctenocephalides felis; 0.1% in Acetone) was 14. For the same compound, the “2 hours Dead” value (ctenocephalides felis; 0.1% in Acetone) was 0, the “20 hours Alive” value (ctenocephalides felis; 0.1% in Acetone) was 14 and the “20 hours Dead” value (ctenocephalides felis; 0.1% in Acetone) was 0. The “5 Hours Alive” value (ctenocephalides felis; 0.1% in Water) was 12, the “5 Hours Dead” value (ctenocephalides felis; 0.1% in Water) was 0 and the “2 hours Alive” value (ctenocephalides felis; 0.1% in Water) was 12. For the same compound, the “2 hours Dead” value (ctenocephalides felis; 0.1% in Water) was 0, the “20 hours Alive” value (ctenocephalides felis; 0.1% in Water) was 12 and the “20 hours Dead” value (ctenocephalides felis; 0.1% in Water) was 0. The “5 Hours Alive” value (ctenocephalides felis; 1% in Acetone) was 9, the “5 Hours Dead” value (ctenocephalides felis; 1% in Acetone) was 0 and the “2 hours Alive” value (ctenocephalides felis; 1% in Acetone) was 9. The “2 hours Dead” value (ctenocephalides felis; 1% in Acetone) was 0, the “20 hours Alive” value (ctenocephalides felis; 1% in Acetone) was 9 and the “20 hours Dead” value (ctenocephalides felis; 1% in Acetone) was 0. The “5 Hours Alive” value (ctenocephalides felis; 1% in Water) was 14, the “5 Hours Dead” value (ctenocephalides felis; 1% in Water) was 0 and the “2 hours Alive” value (ctenocephalides felis; 1% in Water) was 14. The “2 hours Dead” value (ctenocephalides felis; 1% in Water) was 0, the “20 hours Alive” value (ctenocephalides felis; 1% in Water) was 14 and the “20 hours Dead” value (ctenocephalides felis; 1% in Water) was 0.

With `CCCCCCCCCCCC(=O)OC` [Methyl laurate, lauric acid methyl ester] the “5 Hours Alive” value (ctenocephalides felis; 0.1% in Acetone) was 15, the “5 Hours Dead” value (ctenocephalides felis; 0.1% in Acetone) was 0 and the “2 hours Alive” value (ctenocephalides felis; 0.1% in Acetone) was 15. The “2 hours Dead” value (ctenocephalides felis; 0.1% in Acetone) was 0, the “20 hours Alive” value (ctenocephalides felis; 0.1% in Acetone) was 15 and the “20 hours Dead” value (ctenocephalides felis; 0.1% in Acetone) was 0. For the same compound, the “5 Hours Alive” value (ctenocephalides felis; 0.1% in Water) was 15, the “5 Hours Dead” value (ctenocephalides felis; 0.1% in Water) was 0 and the “2 hours Alive” value (ctenocephalides felis; 0.1% in Water) was 15. The “2 hours Dead” value (ctenocephalides felis; 0.1% in Water) was 0, the “20 hours Alive” value (ctenocephalides felis; 0.1% in Water) was 15 and the “20 hours Dead” value (ctenocephalides felis; 0.1% in Water) was 0. For the same compound, the “5 Hours Alive” value (ctenocephalides felis; 1% in Acetone) was 0, the “5 Hours Dead” value (ctenocephalides felis; 1% in Acetone) was 13 and the “2 hours Alive” value (ctenocephalides felis; 1% in Acetone) was 0. For the same compound, the “2 hours Dead” value (ctenocephalides felis; 1% in Acetone) was 13, the “20 hours Alive” value (ctenocephalides felis; 1% in Acetone) was 0 and the “20 hours Dead” value (ctenocephalides felis; 1% in Acetone) was 13. The “5 Hours Alive” value (ctenocephalides felis; 1% in Water) was 11, the “5 Hours Dead” value (ctenocephalides felis; 1% in Water) was 0 and the “2 hours Alive” value (ctenocephalides felis; 1% in Water) was 11. For the same compound, the “2 hours Dead” value (ctenocephalides felis; 1% in Water) was 0, the “20 hours Alive” value (ctenocephalides felis; 1% in Water) was 11 and the “20 hours Dead” value (ctenocephalides felis; 1% in Water) was 0. The “Mortality of the fleas” value (fleas; 0.1% in ethanol) was 100% and the “Mortality of the fleas” value (fleas; 1% in ethanol) was 100%.

For `CCCCCCCCCCCC(=O)OCC` [lauric acid ethyl ester], the “Mortality of the fleas” value (fleas; 0.1% in ethanol) was 100% and the “Mortality of the fleas” value (fleas; 1% in ethanol) was 100%.
